The values that follow come from patent publication US20240425529A1, “BORIC ACID DERIVATIVE” (SHOUYAO HOLDINGS (BEIJING) CO., LTD., priority 2021, published 2024).

Series [1] can be described thus: Animal pharmacokinetic study in rats, single gavage. It counts as in vivo. To be noted: rat, po; male rats, single gavage 5 mg/kg, plasma. On the procedure:
Three healthy adult male rats from Beijing Vital River Experimental animal Technology Co. Ltd were used for animal pharmacokinetic experiments. The compounds were suspended in 20% sulfobutyl ether-β-cyclodextrin (W/W/V) at a concentration of 1 mg/mL at a dosing volume of 5 mL/kg by single gavage at a dose of 5 mg/kg. Animals were fasted overnight before the experiment, from 10 hours before the administration to 4 hours after the administration. Blood was collected at 0.25, 0.5, 1, 2, 4, 6, 8, and 24 hours after the administration. The animals were anesthetized with isoflurane. About 0.4 mL of whole blood was collected from the orbital venous plexus using a glass blood collection tube and placed in a heparin anticoagulant tube. The sample was centrifuged at 4200 rpm for 5 min at 4° C. The plasma was transferred to a centrifuge tube and stored at −80° C. for later analysis. The plasma sample analysis used the acetonitrile protein precipitation method to extract the compound to be tested and internal standard (Warfarin or Propranolol) from rat plasma, and the extraction solution was analyzed by LC/MS/MS. The plasma concentration-time data of individual animals measured were analyzed using anon-compartmental model using the WinNonlin (version 5.2.1; Pharsight company) software, and the following pharmacokinetic parameters were obtained: maximum (peak) plasma drug concentration Cmax; Time to max Tmax; the area under the curve AUC0-inf of blood drug concentration-time from half-life T½ and extrapolation to infinite time.

In series [2] the target is T1, LMP7 (Homo sapiens, UniProt P28062).
T1 construct: using MOLT-4 cell lysate as the enzyme source of LMP7; endogenous in cells; host or cells: MOLT-4 (human acute lymphoblastic leukemia cells)
The series is described as follows: Enzymatic inhibitory activity on LMP7 (MOLT-4 cell lysate, Ac-ANW-AMC substrate). The series is classed as biochemical. To be noted: 1 hour pre-incubation. An outline of the steps:
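Enzyme source was MOLT-4 cell lysate (20 ng/μl final) in 20 mM Tris pH 8.0, 0.5 mM EDTA, preincubated 1 h at 23 °C with compound at 9 final concentrations (0–2000 nM). Ac-ANW-AMC ([…]) was then added, 2 h at 23 °C in the dark. AMC fluorescence (ex 345/em 445 nm) gave the IC50.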

The target of series [3] is T1, LMP7. Briefly: Cytological inhibitory activity on LMP7 in MOLT-4 cells. To be noted: incubation for 2 hours with compound, read-out: Cytological activity data LMP7 Activity (MOLT-4Cell). The series is classed as cell-based. A digest of the protocol:
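MOLT-4 cells pre-incubated 2 h with compound (8 concentrations, 5-fold dilution series from 2 mM DMSO stock, 5% FBS), washed and lysed. Lysate (20 ng/μl, 2× stock) reacted with Ac-ANW-AMC (100 μM, 2× stock) in 20 mM Tris pH 8.0, 0.5 mM EDTA, 1 h, 23 °C. Fluorescence at 345/445 nm; IC50 fitted.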

Another series addresses T2, β5 (Homo sapiens, UniProt P28074).
T2 construct: using HEK-293 cell lysate as the enzyme source of D5; endogenous in cells; host or cells: HEK-293 (human embryonic kidney cells)
Briefly: Enzymatic inhibitory activity on β5 (HEK-293 cell lysate, Ac-WLA-AMC substrate). The series is classed as biochemical. To be noted: 1 hour pre-incubation. An outline of the steps: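 HEK-293 lysate (25 ng/μl final) preincubated 1 h at 23 °C with compound (9-point, 5-fold dilutions) in 20 mM Tris pH 8.0, 0.5 mM EDTA. Ac-WLA-AMC then added at 20 μM final for 2 h at 23 °C in the dark. AMC fluorescence read at Ex 345/Em 445 nm; IC50 from curve fit.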

Each structure is given as a SMILES string.

`O=C(N[C@@H](Cc1coc2ccccc12)B(O)O)C(=O)N1CCOCC1` [Ex. 5, (R)-(2-(benzofuran-3-yl)-1-(2-morpholino-2-oxoacetamido)ethyl)boronic acid]: in series [1], the area under the curve AUC(0-inf) worked out at 20900 ng·h/mL, the Cmax is 3800 ng/mL, the Tmax came out at 1.17 h and the half-life was 4.2 h. Besides, the IC50 at LMP7 [2] is 15.6 nM.

For `O=C(Nc1nccs1)C(=O)N[C@@H](Cc1coc2ccccc12)B(O)O` [Ex. 25, (R)-(2-(benzofuran-3-yl)-1-(2-oxo-2-(thiazol-2-ylamino)acetamido)ethyl) boronic acid], in series [1], the AUC(0-inf) turned out to be 108000 ng·h/mL, the peak concentration (Cmax) turned out to be 7710 ng/mL, the Tmax was 0.42 h and the half-life is 14.4 h.

As for `Cn1cccc(NC(=O)C(=O)N[C@@H](Cc2coc3ccccc23)B(O)O)c1=O` [Ex. 58, (R)-(2-(benzofuran-3-yl)-1-(2-oxo-2-((1-methyl-2-oxo-1,2-dihydropyridin-3-yl)amino)acetamido)ethyl)boronic acid], the IC50 at LMP7 [3] amounted to 5.45 nM; against β5, 84.1 nM; at LMP7 [2], 0.95 nM.

In the case of `O=C(O)CC1(CC(=O)O)OB([C@H](Cc2coc3ccccc23)NC(=O)C(=O)Nc2cnccn2)OC1=O` [Ex. 18, (R)-2,2′-(2-(2-(benzofuran-3-yl)-1-(2-oxo-2-(pyrazin-2-ylamino)acetamido)ethyl)-5-oxo-1,3,2-dioxaborolane-4,4-diyl)diacetic acid], the IC50 on LMP7 [3] stood at 1.26 nM; at β5, 34.1 nM; on LMP7 [2], 2.42 nM.

For orientation: AUC(0-inf) means the area under the concentration-time curve extrapolated to infinity. Read a low AUC(0-inf) as low exposure. For orientation: Cmax means the maximum level reached in the sampled fluid or tissue. By Tmax is commonly meant the time at which the peak concentration occurs. Usually half-life stands for how long it takes for the measured level to halve.
